Earlier results on five compounds are cited in patent publication US20060211763A1, “Treatment with Statin and Omega-3 Fatty Acids and a Combination Product Thereof” (priority 2005, published 2006).

Data set [1] concerns patients with hyperlipidemia. As to conditions: 900 or 1800 mg/day EPA ethyl ester for 3 months added to 5-20 mg/day pravastatin or 5 mg/day simvastatin; vs baseline monotherapy.
Data set [2] deals with patients with hyperlipemia. As to conditions: 10 mg/day atorvastatin 5 weeks (vs baseline).
The conditions of data set [3]: in vivo.
Data set [4] concerns patients with hypercholesterolemia. As to conditions: 40 mg/day lovastatin 6 weeks.
The mark [5] stands for this setting: then plus 2 g/day Omacor 5 weeks (vs atorvastatin alone; insignificant).
Where [6] appears, read: then combination with 6 g/day Omacor 6 weeks.

As for `CC/C=C\C/C=C\C/C=C\C/C=C\C/C=C\CCCC(=O)OCC` [EPA ethyl ester], in data set [1], the HDL-C levels entry is listed as “significantly increased” and the Triglyceride levels result is recorded as “significantly reduced”.
In the case of `CC(C)c1c(C(=O)Nc2ccccc2)c(-c2ccccc2)c(-c2ccc(F)cc2)n1CC[C@@H](O)C[C@@H](O)CC(=O)O` [atorvastatin], the HDL-C levels entry in data set [2] (then plus 2 g/day Omacor 5 weeks (vs atorvastatin alone)) is on record as “significantly increased”. In data set [2] (setting [5]), the LDL-C levels result was “significantly decreased” and the Triglyceride levels entry is listed as “significantly decreased”.
Turning to `CC(C)n1c(/C=C/C(O)CC(O)CC(=O)O)c(-c2ccc(F)cc2)c2ccccc21` (stereo not drawn) [fluvastatin], in data set [3], the Bioavailability entry is on record as “approximately 24%”.
As for `CC[C@H](C)C(=O)O[C@H]1C[C@@H](C)C=C2C=C[C@H](C)[C@H](CC[C@@H]3C[C@@H](O)CC(=O)O3)[C@H]21` [lovastatin], the “Degradation in alkaline environment” value is given as “converted to the acid form”. The HDL-C levels result in data set [4] is given as “significant increases”. In data set [4] (setting [6]), the LDL-C levels result was “significant decreases” and the Triglyceride levels entry is recorded as “significant decreases”. Further, in data set [3], the Rate of absorption entry was “about 30%”.
Turning to `CC[C@H](C)C(=O)O[C@H]1C[C@H](O)C=C2C=C[C@H](C)[C@H](CC[C@@H](O)C[C@@H](O)CC(=O)O)[C@H]21` [pravastatin], in data set [3], the “Effect of food on absorption” value is reported as “best absorbed without food”.
